Laboratory results from patent US9131648B2, “Genes encoding chavicol/eugenol synthase from the creosote bush Larrea tridentata” (Washington State University, priority 2006, dated 2015).
“Also recorded” adds a separate entry of the source. Where two headings read alike, the source gives them in different places.

Assays:
[1] = biological target: T1, LtPLRh1 (LtCES1) (Larrea tridentata, UniProt V5NR15); experiment: In vitro test of LtPLRh1 with PLR, PCBER and IFR substrates; format: biochemical
[2] = biological target: T2, PhIGS1 (Petunia hybrida, UniProt Q15GI3); conditions: cited from earlier work; for Vmax / kcat: PhIGS1
T2 sequence (Q15GI3 1-323): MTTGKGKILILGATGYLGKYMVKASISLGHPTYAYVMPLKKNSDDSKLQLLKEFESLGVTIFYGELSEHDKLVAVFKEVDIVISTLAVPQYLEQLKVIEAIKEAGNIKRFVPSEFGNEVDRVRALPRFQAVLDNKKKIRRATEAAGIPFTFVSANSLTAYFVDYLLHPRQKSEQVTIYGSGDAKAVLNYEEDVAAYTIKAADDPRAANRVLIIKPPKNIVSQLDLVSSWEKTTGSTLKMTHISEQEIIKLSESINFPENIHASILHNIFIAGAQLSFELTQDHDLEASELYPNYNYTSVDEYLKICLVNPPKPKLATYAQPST

[3] = biological target: T3, ObEGS1 (Ocimum basilicum, UniProt Q15GI4); conditions: cited from earlier work; for Vmax / kcat: ObEGS1
T3 sequence (Q15GI4 1-314): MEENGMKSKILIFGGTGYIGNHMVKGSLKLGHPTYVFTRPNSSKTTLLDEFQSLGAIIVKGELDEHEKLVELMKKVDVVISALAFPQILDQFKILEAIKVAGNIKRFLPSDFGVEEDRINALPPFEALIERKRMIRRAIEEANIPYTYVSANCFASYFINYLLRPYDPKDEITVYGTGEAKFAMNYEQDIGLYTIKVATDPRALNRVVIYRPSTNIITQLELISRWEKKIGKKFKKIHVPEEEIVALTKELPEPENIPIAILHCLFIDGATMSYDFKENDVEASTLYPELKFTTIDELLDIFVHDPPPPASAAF

[4] = biological target: T1, LtPLRh1 (LtCES1); experiment: LtPLRh1 (LtCES1) chavicol/eugenol synthase assays, kinetic parameters for monolignol ester substrates; format: biochemical; conditions: for Km values / Vmax values: PLR homologue in the creosote bush; for Vmax / kcat: Table 2, LtPLRh1 apparent
Description: (§1) Enzymatic assays. All assays were performed at 30° C. in 250 μl of the corresponding buffered solutions (at 100 mM buffer concentration) containing 0.5 μg […]1) Rh1 and 1.0 mM NADPH, and were terminated by addition of 25 μl glacial acetic acid and freezing. […] Assays were carried out for 1 to 120 min; controls included both boiled enzyme extracts and omission of substrates. Kinetic parameters (Km and Vmax): Three sets of triplicate assays were carried out for 5 min in Bis-Tris propane buffer at pH 7.55, and contained different concentrations of p-coumaryl acetate (48), p-coumaryl coumarate (50) or coniferyl acetate (49) (3.2 μM-1 mM).

[5] = test system: basil CS/ES and petunia IES; conditions: range over basil CS/ES and petunia IES, cited from earlier work
[6] = biological target: T4, PLR_Tp1 (Thuja plicata, UniProt Q9LD14); conditions: Kim et al., manuscript in preparation (34), cited from earlier work
T4 sequence (Q9LD14 1-313): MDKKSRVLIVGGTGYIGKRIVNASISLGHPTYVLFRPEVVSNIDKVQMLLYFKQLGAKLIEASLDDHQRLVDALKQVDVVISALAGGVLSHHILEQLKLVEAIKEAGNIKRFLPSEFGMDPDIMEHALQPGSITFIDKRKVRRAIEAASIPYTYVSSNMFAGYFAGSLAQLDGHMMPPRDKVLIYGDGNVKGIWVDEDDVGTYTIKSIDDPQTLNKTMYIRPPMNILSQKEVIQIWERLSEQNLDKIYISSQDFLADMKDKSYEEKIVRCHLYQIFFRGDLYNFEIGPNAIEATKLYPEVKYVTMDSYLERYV

[7] = substrate: COc1cc(/C=C/COC(C)=O)ccc1O; experiment: LtPLRh1 (LtCES1) chavicol/eugenol synthase assays, kinetic parameters for monolignol ester substrates; format: biochemical, Larrea tridentata; conditions: other: Table 1, Bis-Tris propane pH 7.55, 30° C., 1.0 mM NADPH, apparent values
Description: as §1

[8] = substrate: O=C(/C=C/c1ccc(O)cc1)OC/C=C/c1ccc(O)cc1; experiment: as above; format: biochemical, Larrea tridentata; conditions: other: Table 1, Bis-Tris propane pH 7.55, 30° C., 1.0 mM NADPH, apparent values
Description: as §1

[9] = substrate: CC(=O)OC/C=C/c1ccc(O)cc1; experiment: as above; format: biochemical, Larrea tridentata; conditions: other: Table 1, Bis-Tris propane pH 7.55, 30° C., 1.0 mM NADPH, apparent values
Description: as §1

[10] = Characterisation of recombinant LtPLRh1: pH optimum and efficiency versus homologues; format: biochemical, Larrea tridentata; conditions: from previously reported kinetic parameters (26)
Description: Enzymatic assays. All assays were performed at 30° C. in 250 μl of the corresponding buffered solutions (at 100 mM buffer concentration) containing 0.5 μg LtPL LtPLRh1 (LtCES1) Rh1 and 1.0 mM NADPH, and were terminated by addition of 25 μl glacial acetic acid and freezing. Chavicol/eugenol synthase activity assays were individually performed in Bis-Tris propane buffer (pH 7.55) containing 0.4 mM p-coumaryl coumarate (50), p-coumaryl acetate (48) or coniferyl acetate (49). Assays were carried out for 1 to 120 min; controls included both boiled enzyme extracts and omission of substrates.
Kinetic parameters (Km and Vmax): Three sets of triplicate assays were carried out for 5 min in Bis-Tris propane buffer at pH 7.55, and contained different concentrations of p-coumaryl acetate (48), p-coumaryl coumarate (50) or coniferyl acetate (49) (3.2 μM-1 mM).

In the case of `COc1ccc(-c2coc3cc(O)cc(O)c3c2=O)cc1` [biochanin A (74), biochanin A], the “activity of LtPLRh1 towards the compound as substrate” value (shortened to “activity … as substrate”) [1] is reported as “at best marginal activity; also recorded: do not serve as substrates”.

In the case of `COc1cc(/C=C/COC(C)=O)ccc1O` [coniferyl acetate (49), coniferyl acetate], the Km ([2]; Table 1, PhIGS1, Koeduka et al. 2006) is given as 1600 µM, the Vmax ([2]; Table 1) is given as 7 pkat μg^−1 prot and the kcat ([2]; Table 1) is given as 0.3 s⁻¹. For the same molecule, the Km ([2]; Table 2, PhIGS1, as reported in (26)) was 1600 µM, the Vmax ([2]; Table 2) was 7 pkat/μg and the kcat ([2]; Table 2) was 0.3 s⁻¹. The Km ([3]; Table 1, ObEGS1, Koeduka et al. 2006) was 5100 µM, the Vmax ([3]; Table 1) was 20 pkat μg^−1 prot and the kcat ([3]; Table 1) was 0.7 s⁻¹. The Km ([3]; Table 2, ObEGS1, as reported in (26)) was 5100 µM, the Vmax ([3]; Table 2) was 20 pkat/μg and the kcat ([3]; Table 2) was 0.7 s⁻¹. For the same molecule, the “efficiency of reduction by LtPLRh1 relative to reported homologues in basil and petunia” value [4] was over 100 fold, the Km values [4] was “a few hundred” and the Vmax values [4] was “a few hundred”. The Vmax [4] was 190 pkat/μg, the kcat [4] was 6.46 s⁻¹ and the Vmax [5] was 7-20 pkat μg^−1 protein. For the same molecule, the Km ([5]; read-out: substrate affinities (Km)) was 1600 to 5100 µM.

With `COc1cc(C2Oc3c(OC)cc(/C=C/CO)cc3C2CO)ccc1O` (centres unmarked) [dehydrodiconiferyl alcohol (56), dehydrodiconiferyl alcohol] the “activity … as substrate” value [1] was “at best marginal activity”.

In the case of `O=c1c(-c2ccc(O)cc2)coc2cc(O)cc(O)c12` [genistein (73), genistein], the “activity … as substrate” value [1] is reported as “at best marginal activity; also recorded: do not serve as substrates”.

With `C[C@@H]1[C@H](C)[C@@H](c2ccc(O)cc2)O[C@@H]1c1ccc(O)cc1` [larreatricin (62), larreatricin] the “activity … as substrate” value [1] was “at best marginal activity”.

For `C/C=C/c1cc(OC)c2c(c1)[C@H](C)[C@@H](c1ccc(O)c(OC)c1)O2` [licarin A (64), licarin A], the “activity … as substrate” value [1] was “at best marginal activity”.

In the case of `COc1cc([C@H]2OC[C@@H]3C(c4cc(OC)c(O)c(OC)c4)OC[C@H]23)ccc1O` (some centres unmarked) [medioresinol (69), medioresinol], the “PLR-catalyzed reduction (serves as substrate)” value (“PLR-catalyzed reduction” for short) [6] is listed as “uses several p-hydroxylated phenylpropanoid substrates” and the “PLR-catalyzed reduction” value ([6]; listed as Medioresinol (69)) is listed as “additional PLR substrates”.

With `COc1cc([C@H]2O[C@@H](c3ccc(O)c(OC)c3)[C@H](C)[C@@H]2C)ccc1O` [nectandrin B (72), nectandrin B] the “activity … as substrate” value [1] was “at best marginal activity; also recorded: do not serve as substrates”.

For `CC(=O)OC/C=C/c1ccc(O)cc1` [p-coumaryl acetate (48), p-coumaryl acetate], the Km values [4] was “a few hundred”, the Vmax values [4] was “a few hundred” and the Vmax [4] was 200 pkat/μg. It also gave a kcat [4] of 6.80 s⁻¹.

For `O=C(/C=C/c1ccc(O)cc1)OC/C=C/c1ccc(O)cc1` [p-coumaryl coumarate (50), p-coumaryl coumarate], the Km values [4] was “a few hundred”, the Vmax values [4] was “a few hundred” and the Vmax [4] was 75 pkat/μg. It also gave a kcat [4] of 2.55 s⁻¹.

For `c1cc2c(cc1[C@H]1OC[C@H]3[C@@H]1CO[C@@H]3c1ccc3c(c1)OCO3)OCO2` [sesamin (71), sesamin], the “PLR-catalyzed reduction” value [6] is given as “fails to reduce; also recorded: does not undergo PLR-catalyzed reduction”.

In the case of `COc1cc([C@H]2OC[C@H]3[C@@H]2CO[C@@H]3c2cc(OC)c(O)c(OC)c2)cc(OC)c1O` [syringaresinol (70), syringaresinol], the “PLR-catalyzed reduction” value [6] is listed as “uses several p-hydroxylated phenylpropanoid substrates; also recorded: additional PLR substrates”.

For pinoresinol [pinoresinol (54)], the “activity … as substrate” value [1] is listed as “at best marginal activity” and the “PLR-catalyzed reduction” value [6] is listed as “uses several p-hydroxylated phenylpropanoid substrates”.

B1: LtPLRh1 (LtCES1) (Larrea tridentata) (protein)
chain: MAQKSKILIIGGTGYIGKFVVEASAKAGRPTFALVRESTVSDPVKGKLIANFKNLGVNILHGDLNDHESLVKAIKKVDVVISTVGNFQIADQVKIIAAIKAAGNVKRFFPSEFGNDVDRTHAVEPAKSTFEMKAQLRRTIEAEGIPYTYVSSNFFAGYFLPVLGQVGVTAPPRDKVTILGDGNQKAVFNKEDDIGTYTIRAADDPRTLNKILYIRPPRNTYSMNELVALWEKKIGKTLEKTYVPEEQLLKNIQEAEIPWNVVLAINHSVFVKGDHTNFAIKPSFGVEASELYPDVKYTTVEEYLSQFV
In the case of B1, the Km [7] is reported as 290 µM, the Vmax [7] is reported as 11.4 µmol/min/mg and the kcat [7] is reported as 6.46 s⁻¹. The kcat/Km [7] was 22000 M⁻¹ s⁻¹, the Km [8] was 210 µM and the Vmax [8] was 4.5 µmol/min/mg. For the same molecule, the kcat [8] was 2.55 s⁻¹, the kcat/Km [8] was 12000 M⁻¹ s⁻¹ and the Km [9] was 350 µM. It also gave a Vmax [9] of 12 µmol/min/mg, a kcat [9] of 6.8 s⁻¹ and a kcat/Km [9] of 19500 M⁻¹ s⁻¹.

B2: LtPLRh1: pinoresinol-lariciresinol reductase homologue from Larrea tridentata, chavicol/eugenol synthase, SEQ ID NO:2, recombinant 34 kDa (protein)
chain: B1 chain
modifications: Larrea tridentate
In the case of B2, the “efficiency/activity relative to the enzymes reported in basil and petunia” value [10] is reported as over 100 fold and the “efficiency/activity relative to the enzymes reported in basil and petunia” value ([10]; listed as LtPLRh1 (LtCES1)) is reported as “over 100 fold”.
